Test results from ChEMBL document CHEMBL1150678, “Bioactive sterols from the starfish Certonardoa semiregularis” (2003).
≈ marks a conversion by molar mass, not a printed value.

What was measured:
Pseudomonas aeruginosa [1] = test: Antimicrobial activity against Pseudomonas aeruginosa 1592E isolate after 18 hrs; type: functional
Pseudomonas aeruginosa [2] = test: Antimicrobial activity against Pseudomonas aeruginosa 1771M isolate after 18 hrs; type: functional
Streptococcus pyogenes [3] = test: Antimicrobial activity against Streptococcus pyogenes 308A isolate after 18 hrs; type: functional
Streptococcus pyogenes [4] = test: Antimicrobial activity against Streptococcus pyogenes 77A isolate after 18 hrs; type: functional
Pseudomonas aeruginosa [5] = test: Antimicrobial activity against Pseudomonas aeruginosa 1771 isolate after 18 hrs; type: functional
SK-MEL-2 = test: Cytotoxicity against human SK-MEL-2 cells; type: functional; conditions: read-out: ED50 (the source's name)
Klebsiella oxytoca = test: Antimicrobial activity against Klebsiella oxytoca 1082E after 18 hrs; type: functional
Escherichia coli [6] = test: Antimicrobial activity against Escherichia coli DC0 isolate after 18 hrs; type: functional
Klebsiella aerogenes = test: Antimicrobial activity against Klebsiella aerogenes 1522E after 18 hrs; type: functional
Enterobacter cloacae [7] = test: Antimicrobial activity against Enterobacter cloacae 1321E after 18 hrs; type: functional
Staphylococcus aureus [8] = test: Antimicrobial activity against Staphylococcus aureus SG511 isolate after 18 hrs; type: functional
XF498 = test: Cytotoxicity against human XF498 cells; type: functional; conditions: read-out: ED50 (the source's name)
Escherichia coli [9] = test: Antimicrobial activity against Escherichia coli DC2 isolate after 18 hrs; type: functional
HCT-15 = test: Cytotoxicity against human HCT15 cells; type: functional; conditions: read-out: ED50 (the source's name)
Staphylococcus aureus [10] = test: Antimicrobial activity against Staphylococcus aureus 503 isolate after 18 hrs; type: functional
A549 = test: Cytotoxicity against human A549 cells; type: functional; conditions: read-out: ED50 (the source's name)
Escherichia coli [11] = test: Antimicrobial activity against Escherichia coli TEM isolate after 18 hrs; type: functional
Pseudomonas aeruginosa [12] = test: Antimicrobial activity against Pseudomonas aeruginosa 9027 isolate after 18 hrs; type: functional
Enterobacter cloacae [13] = test: Antimicrobial activity against Enterobacter cloacae P99 after 18 hrs; type: functional
Staphylococcus aureus [14] = test: Antimicrobial activity against Staphylococcus aureus 285 isolate after 18 hrs; type: functional
SK-OV-3 = test: Cytotoxicity against human SKOV3 cells; type: functional; conditions: read-out: ED50 (the source's name)
Salmonella typhimurium = test: Antimicrobial activity against Salmonella Typhimurium after 18 hrs; type: functional, Salmonella enterica subsp. enterica serovar Typhimurium; conditions: Salmonella enterica
Enterococcus faecium = test: Antimicrobial activity against Streptococcus faecium MD8b isolate after 18 hrs; type: functional
Escherichia coli [15] = test: Antimicrobial activity against Escherichia coli 078 isolate after 18 hrs; type: functional
Escherichia coli [16] = test: Antimicrobial activity against Escherichia coli 1507E isolate after 18 hrs; type: functional

Row | SMILES | MIC (Pseudomonas aeruginosa [1]) | MIC (Pseudomonas aeruginosa [2]) | MIC (Streptococcus pyogenes [3]) | MIC (Streptococcus pyogenes [4]) | MIC (Pseudomonas aeruginosa [5]) | EC50 (SK-MEL-2) | MIC (Klebsiella oxytoca) | MIC (Escherichia coli [6]) | MIC (Klebsiella aerogenes) | MIC (Enterobacter cloacae [7]) | MIC (Staphylococcus aureus [8]) | EC50 (XF498) | MIC (Escherichia coli [9]) | EC50 (HCT-15) | MIC (Staphylococcus aureus [10]) | EC50 (A549) | MIC (Escherichia coli [11]) | MIC (Pseudomonas aeruginosa [12]) | MIC (Enterobacter cloacae [13]) | EC50 (SK-OV-3) | other results
1 | C[C@@H](O)[C@H]1C(=O)N2C(C(=O)O)=C(S[C@@H]3CN[C@H](C(=O)N(C)C)C3)[C@H](C)[C@H]12 [MEROPENEM] | 0.2 µg/mL (≈ 0.522 µM) | 0.1 µg/mL (≈ 0.261 µM) | 0.01 µg/mL (≈ 0.0261 µM) | 0.004 µg/mL (≈ 0.0104 µM) | 0.39 µg/mL (≈ 1.02 µM) |  |  |  |  |  |  |  |  |  |  |  |  |  |  |  | 
2 | CC(C)[C@@H](O)CC[C@@H](C)[C@H]1C[C@@H](O)[C@H]2[C@@H]3C[C@H](O)[C@H]4C[C@@H](O)CC[C@]4(C)[C@H]3CC[C@@]21C [CERTONARDOSTEROL F] | 25 µg/mL (≈ 57.3 µM) | > 25 µg/mL | 25 µg/mL (≈ 57.3 µM) | 25 µg/mL (≈ 57.3 µM) | 25 µg/mL (≈ 57.3 µM) | 3.8 µg/mL (≈ 8.7 µM) | > 25 µg/mL | > 25 µg/mL | > 25 µg/mL | > 25 µg/mL | > 25 µg/mL | 4.3 µg/mL (≈ 9.85 µM) | > 25 µg/mL | 5.5 µg/mL (≈ 12.6 µM) | > 25 µg/mL | 3.8 µg/mL (≈ 8.7 µM) | > 25 µg/mL | > 25 µg/mL | > 25 µg/mL | 4.4 µg/mL (≈ 10.1 µM) | MIC (Staphylococcus aureus [14]): > 25 µg/mL; MIC (Salmonella typhimurium): > 25 µg/mL; MIC (Enterococcus faecium): > 25 µg/mL; MIC (Escherichia coli [15]): > 25 µg/mL; MIC (Escherichia coli [16]): > 25 µg/mL
3 | C=C(CC[C@@H](C)[C@H]1C[C@@H](O)[C@H]2[C@@H]3C[C@H](O)[C@H]4C[C@@H](O)CC[C@]4(C)[C@H]3CC[C@@]21C)[C@H](C)CO [CERTONARDOSTEROL D] | > 25 µg/mL | 25 µg/mL (≈ 55.7 µM) | 25 µg/mL (≈ 55.7 µM) | > 25 µg/mL | 25 µg/mL (≈ 55.7 µM) | 5.5 µg/mL (≈ 12.3 µM) | > 25 µg/mL | > 25 µg/mL | > 25 µg/mL | > 25 µg/mL | > 25 µg/mL | 4.8 µg/mL (≈ 10.7 µM) | > 25 µg/mL | 9.6 µg/mL (≈ 21.4 µM) | > 25 µg/mL | 5.3 µg/mL (≈ 11.8 µM) | > 25 µg/mL | > 25 µg/mL | > 25 µg/mL | 8.5 µg/mL (≈ 18.9 µM) | MIC (Staphylococcus aureus [14]): > 25 µg/mL; MIC (Salmonella typhimurium): > 25 µg/mL; MIC (Enterococcus faecium): > 25 µg/mL; MIC (Escherichia coli [15]): > 25 µg/mL; MIC (Escherichia coli [16]): > 25 µg/mL
4 | C=C(CC[C@@H](C)[C@H]1C[C@@H](O)[C@H]2[C@@H]3C[C@H](O)[C@H]4[C@@H](O)[C@@H](O)CC[C@]4(C)[C@H]3CC[C@@]21C)[C@H](C)CO [CERTONARDOSTEROL B] | > 25 µg/mL | 25 µg/mL (≈ 53.8 µM) | 25 µg/mL (≈ 53.8 µM) | > 25 µg/mL | 25 µg/mL (≈ 53.8 µM) | 4.9 µg/mL (≈ 10.5 µM) | > 25 µg/mL | > 25 µg/mL | > 25 µg/mL | > 25 µg/mL | > 25 µg/mL | 4.7 µg/mL (≈ 10.1 µM) | > 25 µg/mL | 6.4 µg/mL (≈ 13.8 µM) | > 25 µg/mL | 3.6 µg/mL (≈ 7.75 µM) | > 25 µg/mL | > 25 µg/mL | > 25 µg/mL | 6.9 µg/mL (≈ 14.8 µM) | MIC (Staphylococcus aureus [14]): > 25 µg/mL; MIC (Salmonella typhimurium): > 25 µg/mL; MIC (Enterococcus faecium): > 25 µg/mL; MIC (Escherichia coli [15]): > 25 µg/mL; MIC (Escherichia coli [16]): > 25 µg/mL
5 | CC(/C=C/[C@@H](C)[C@H]1C[C@@H](O)[C@H]2[C@@H]3C[C@H](O)[C@H]4C(O)[C@@H](O)CC[C@]4(C)[C@H]3CC[C@@]21C)CCO (stereo not given in full) [CERTONARDOSTEROL L] |  |  |  |  |  | 4.3 µg/mL (≈ 9.54 µM) |  |  |  |  |  | 4.5 µg/mL (≈ 9.99 µM) |  | 4.2 µg/mL (≈ 9.32 µM) |  | 4.3 µg/mL (≈ 9.54 µM) |  |  |  | 6 µg/mL (≈ 13.3 µM) | 
6 | CC(C)[C@@H](O)/C=C/[C@@H](C)[C@H]1C[C@@H](O)[C@H]2[C@@H]3C[C@H](O)[C@H]4C[C@@H](O)CC[C@]4(C)[C@H]3CC[C@@]21C [CERTONARDOSTEROL G] | > 25 µg/mL | 25 µg/mL (≈ 57.5 µM) | 12.5 µg/mL (≈ 28.8 µM) | > 25 µg/mL | 12.5 µg/mL (≈ 28.8 µM) | 3.4 µg/mL (≈ 7.82 µM) | > 25 µg/mL | > 25 µg/mL | > 25 µg/mL | > 25 µg/mL | > 25 µg/mL | 3.7 µg/mL (≈ 8.51 µM) | > 25 µg/mL | 4 µg/mL (≈ 9.2 µM) | > 25 µg/mL | 3.6 µg/mL (≈ 8.28 µM) | > 25 µg/mL | > 25 µg/mL | > 25 µg/mL | 3.6 µg/mL (≈ 8.28 µM) | MIC (Staphylococcus aureus [14]): > 25 µg/mL; MIC (Salmonella typhimurium): > 25 µg/mL; MIC (Enterococcus faecium): > 25 µg/mL; MIC (Escherichia coli [15]): > 25 µg/mL; MIC (Escherichia coli [16]): > 25 µg/mL
7 | COc1cccc2c1C(=O)c1c(O)c3c(c(O)c1C2=O)C[C@@](O)(C(=O)CO)C[C@@H]3O[C@H]1C[C@H](N)[C@H](O)[C@H](C)O1 [DOXORUBICIN] |  |  |  |  |  | 0.02 µg/mL (≈ 0.0368 µM) |  |  |  |  |  | 0.06 µg/mL (≈ 0.11 µM) |  | 0.03 µg/mL (≈ 0.0552 µM) |  | 0.02 µg/mL (≈ 0.0368 µM) |  |  |  | 0.17 µg/mL (≈ 0.313 µM) | 
8 | CC(C)[C@@H](O)CC[C@@H](C)[C@H]1C[C@@H](O)[C@@H]2[C@]1(C)CC[C@@H]1[C@@]3(C)CC[C@H](O)C[C@@H]3[C@@H](O)C[C@]12O | > 25 µg/mL | 25 µg/mL (≈ 55.2 µM) | 12.5 µg/mL (≈ 27.6 µM) | > 25 µg/mL | 25 µg/mL (≈ 55.2 µM) | 12.4 µg/mL (≈ 27.4 µM) | > 25 µg/mL | > 25 µg/mL | > 25 µg/mL | > 25 µg/mL | > 25 µg/mL | 11.4 µg/mL (≈ 25.2 µM) | > 25 µg/mL | 19.4 µg/mL (≈ 42.9 µM) | > 25 µg/mL | 11.3 µg/mL (≈ 25 µM) | > 25 µg/mL | > 25 µg/mL | > 25 µg/mL | 15.6 µg/mL (≈ 34.5 µM) | MIC (Staphylococcus aureus [14]): > 25 µg/mL; MIC (Salmonella typhimurium): > 25 µg/mL; MIC (Enterococcus faecium): > 25 µg/mL; MIC (Escherichia coli [15]): > 25 µg/mL; MIC (Escherichia coli [16]): > 25 µg/mL
9 | C/C(=C\[C@@H](C)[C@H]1C[C@@H](O)[C@H]2[C@@H]3C[C@H](O)[C@H]4C[C@@H](O)CC[C@]4(C)[C@H]3CC[C@@]21C)[C@H](C)[C@@H](C)CO [CERTONARDOSTEROL J] | > 25 µg/mL | 25 µg/mL (≈ 54 µM) | 25 µg/mL (≈ 54 µM) | 25 µg/mL (≈ 54 µM) | 12.5 µg/mL (≈ 27 µM) | 7.1 µg/mL (≈ 15.3 µM) | > 25 µg/mL | > 25 µg/mL | > 25 µg/mL | > 25 µg/mL | > 25 µg/mL | 11.4 µg/mL (≈ 24.6 µM) | > 25 µg/mL | 12.5 µg/mL (≈ 27 µM) | > 25 µg/mL | 8 µg/mL (≈ 17.3 µM) | > 25 µg/mL | > 25 µg/mL | > 25 µg/mL | 10.3 µg/mL (≈ 22.3 µM) | MIC (Staphylococcus aureus [14]): > 25 µg/mL; MIC (Salmonella typhimurium): > 25 µg/mL; MIC (Enterococcus faecium): > 25 µg/mL; MIC (Escherichia coli [15]): > 25 µg/mL; MIC (Escherichia coli [16]): > 25 µg/mL
10 | C[C@H](CO)[C@H](C)CC[C@@H](C)[C@H]1C[C@@H](O)[C@@H]2[C@]1(C)CC[C@@H]1[C@@]3(C)CC[C@H](O)[C@H](O)[C@@H]3[C@@H](O)C[C@]12O [CERTONARDOSTEROL M] |  |  |  |  |  | > 30 µg/mL |  |  |  |  |  | > 30 µg/mL |  | > 30 µg/mL |  | 30 µg/mL (≈ 62.2 µM) |  |  |  | > 30 µg/mL | 
